Reference: US20100132057A1, “GENETICALLY MODIFIED ANIMAL FOR USE IN EVALUATING HARMFULNESS OF TEST SUBSTANCE” (priority 2008, published 2010)

Key:
[1] = tested on: reporter (luciferase) gene under AhR-binding enhancer of the TH gene and TH gene promoter; test: Luciferase luminescence in genetically modified mouse during exposure to βNF (IVIS imaging); assay type: in vivo
Procedure: When the reporter gene is a firefly luciferase gene, the method may include administering luciferin, a substrate for the luciferase, by intraperitoneal injection to the genetically modified mouse 6 to 72 hours after the administration of the test substance to the genetically modified mouse and measuring luminescence derived from the individual or derived from the enzyme activity of the luciferase in the brain with a luminescence measurement system such as an In-Vivo Imaging System (IVIS), manufactured by Xenogen Corporation.
A dioxin analog, β-naphthoflavone (βNF), was used as a test substance. A solution of βNF in corn oil was intraperitoneally injected at a βNF dose of 40 mg/kg into each of the genetically modified mice #176 (4 weeks old), #177 (6 weeks old) and #184 (6 weeks old) in the T1 generation. The same amount of corn oil as the amount of the solution in the βNF-administered group was intraperitoneally administered to each of the control group mice (the genetically modified mice in the T1 generation). […] After 5 minutes, an In-Vivo Imaging System (IVIS 100-series), manufactured by Xenogen Corporation, was used to detect luciferase luminescence in the mice. […] In addition, the brain of the genetically modified mouse #176 was cut in the vicinity of the midbrain, and luminescence from the cut section was measured with the IVIS System.

[2] = tested on: reporter (luciferase) gene under AhR-binding enhancer of the TH gene and TH gene promoter in primary neuronal cells; test: Luciferase luminescence in primary neuronal cells isolated from genetically modified mouse during exposure to TCDD; assay type: cell-based; conditions: 24 hours, FIG. 9; for increase in the degree of luminescence from the unexposed case: primary neuronal cells of mouse #176 embryos (E12)
Source text: Another embodiment of the invention is directed to a method that includes isolating primary neuronal cells from the genetically modified mouse, exposing the primary neuronal cells to a test substance, and then measuring the expression of the reporter gene in the cells to evaluate the effect of the test substance on the central nervous system. When the reporter gene is a firefly luciferase gene, the method may include isolating primary neuronal cells from the genetically modified mouse, exposing the primary neuronal cells to a test substance, collecting the cells to extract proteins therefrom 2 to 72 hours after the exposure, adding luciferin, a substrate for the luciferase, to the liquid extract, and measuring luminescence derived from the enzyme activity of the luciferase with a luminometer.
The genetically modified mouse #176 (hetero, male) was mated with a wild-type mouse, and 12 days after the observation of the plug, the brain was removed from the embryo (E12: an embryonic age of 12 days) under a sterile environment. All the removed embryonic brains were collected, and 0.25% trypsin was added thereto and incubated at 37° C. for 15 minutes. The trypsin was removed. After washed tree times with the Hank's solution, the cells were suspended in a serum-containing DF 1:1 medium (Dulbecco-F12 equal-ratio mixture medium+10% fetal bovine serum). […]
[…] The resulting extracted protein solution was used in the measurement of luciferase luminescence. In the luciferase luminescence measurement, 100 μl of an assay solution (PicaGene Assay Kit, Toyo B-Net Co., Ltd.) was added to 10 μl of the collected protein solution and stirred, and immediately after the stirring, the degree of luminescence per 2 minutes was measured with a luminometer LB-940 (Berthold). The resulting degree of luminescence was divided by the total protein amount of the protein solution so that it was converted into a relative luminescence intensity (RLU/min/μg protein). The total protein amount of the solution was measured with a protein assay kit (Bio-Rad).

Row | Compound | luciferase luminescence in the mice ([1]; genetically modified mice #176, #177, #184 (T1 generation), βNF 40 mg/kg intraperitoneal in corn oil, 72 hours after administration, whole-body IVIS, FIG. 6) | degree of luminescence from cut brain section ([1]; genetically modified mouse #176, βNF 40 mg/kg intraperitoneal, brain cut in the vicinity of the midbrain, IVIS, FIG. 7) | change in the degree of luminescence with TCDD concentration ([2]; TCDD 0, 0.1 or 10 ng/ml, primary neuronal cells of mouse #176 embryos) | increase in the degree of luminescence from the unexposed case ([2]; exposure to 0.1 nM TCDD) [times] | increase in the degree of luminescence from the unexposed case ([2]; exposure to 10 ng/ml TCDD) [times]
1 | O=c1cc(-c2ccccc2)oc2ccc3ccccc3c12 [βNF, β-naphthoflavone] | luciferase luminescence was observed in all the genetically modified mice | an increase in the degree of luminescence was detected in the vicinity of the midbrain or hippocampus | – | – | –
2 | Clc1cc2c(cc1Cl)Oc1cc(Cl)c(Cl)cc1O2 [TCDD, 2,3,7,8-tetrachlorodibenzo-p-dioxin] | – | – | TCDD concentration-dependent increase in the degree of luminescence | 1.3 | 3.1
